{"source": "patent US20250195530A1", "about": "“POLQ INHIBITORS” (ASTRAZENECA AB, priority 2022, published 2025)", "test_system": "DLD-1 BRCA2−/− cells", "test": "Homologous recombination synthetic lethal inhibition of proliferation, DLD-1 BRCA2-/- (Cell Titre Glo 3D)", "format": "cell-based", "conditions": "DLD-1 BRCA2-/-; for IC50: Homo sapiens, read-out: POLQ PD Prolif Lumin (converted)", "how_it_was_run": "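Isogenic DLD-1 pair; BRCA2−/− seeded 3,000 cells/mL and read day 12, wt seeded 1,500 cells/mL and read day 7. 10-pt titration (top 10 μM, 3-fold), re-fed with compound day 6, 37 °C/5% CO2. CTG 3D endpoint; IC50 at 50% signal loss.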", "key": {"[1]": {"conditions": "DLD-1, first proliferation column (c5)"}, "[2]": {"conditions": "DLD-1, first proliferation column"}}, "note": "Read-outs that look alike come from different tables or passages of the source.", "data": [{"smiles": "Cc1ccnc(Cn2c(-c3ccc(OCC(=O)NC(C)(C)CO)cc3Cl)nc3c(OC4(C)CC4)ncnc32)c1", "note": "[Example T519, 2-(3-chloro-4-(6-(1-methylcyclopropoxy)-9-((4-methylpyridin-2-yl)methyl)-9H-purin-8-yl)phenoxy)-N-(1-hydroxy-2-methylpropan-2-yl)acetamide]", "values": [{"measurement": "IC50", "setting": "[1]", "result": 0.316, "unit": "µM"}]}, {"smiles": "CC[C@@H](O)CNC(=O)COc1ccc(-c2nc3c(OC4(C)CC4)ncnc3n2Cc2cc(C)ccn2)c(Cl)c1", "note": "[Example T520, (R)-2-(3-chloro-4-(6-(1-methylcyclopropoxy)-9-((4-methylpyridin-2-yl)methyl)-9H-purin-8-yl)phenoxy)-N-(2-hydroxybutyl)acetamide]", "values": [{"measurement": "IC50", "setting": "[1]", "result": 0.398, "unit": "µM"}]}, {"smiles": "C[C@@H]1CNCCN1CCOc1ccc(-c2nc3c(OC4(C)CC4)ncnc3n2Cc2cc(Cl)ccn2)c(Cl)c1", "note": "[Example T522, (R)-8-(2-chloro-4-(2-(2-methylpiperazin-1-yl)ethoxy)phenyl)-9-((4-chloropyridin-2-yl)methyl)-6-(1-methylcyclopropoxy)-9H-purine]", "values": [{"measurement": "IC50", "setting": "[1]", "result": 0.251, "unit": "µM"}]}, {"smiles": "Cc1ccnc(Cn2c(-c3ccc(OCC(=O)N4CC[C@@H](C#N)C4)cc3Cl)nc3c(OC4(C)CC4)ncnc32)c1", "note": "[Example T538, (R)-1-(2-(3-chloro-4-(6-(1-methylcyclopropoxy)-9-((4-methylpyridin-2-yl)methyl)-9H-purin-8-yl)phenoxy)acetyl)pyrrolidine-3-carbonitrile]", "values": [{"measurement": "IC50", "setting": "[1]", "result": 0.501, "unit": "µM"}]}, {"smiles": "Cc1ccnc(Cn2c(-c3ccc(OCC(=O)N4CCC[C@H]4C#N)cc3Cl)nc3c(OC4(C)CC4)ncnc32)c1", "note": "[Example T539, (S)-1-(2-(3-chloro-4-(6-(1-methylcyclopropoxy)-9-((4-methylpyridin-2-yl)methyl)-9H-purin-8-yl)phenoxy)acetyl)pyrrolidine-2-carbonitrile]", "values": [{"measurement": "IC50", "setting": "[1]", "result": 0.316, "unit": "µM"}]}, {"smiles": "Cc1ccnc(Cn2c(-c3ccc(OCC(=O)N4C[C@H]5C[C@@H](C4)O5)cc3Cl)nc3c(OC4(C)CC4)ncnc32)c1", "note": "[Example T550, rel-1-((1R,5S)-6-oxa-3-azabicyclo[3.1.1]heptan-3-yl)-2-(3-chloro-4-(6-(1-methylcyclopropoxy)-9-((4-methylpyridin-2-yl)methyl)-9H-purin-8-yl)phenoxy)ethan-1-one]", "values": [{"measurement": "IC50", "setting": "[1]", "result": 0.316, "unit": "µM"}]}, {"smiles": "Cc1ccnc(Cn2c(-c3ccc(OCC(=O)N4CCC[C@H](F)C4)cc3Cl)nc3c(OC4(C)CC4)ncnc32)c1", "note": "[Example T552, (S)-2-(3-chloro-4-(6-(1-methylcyclopropoxy)-9-((4-methylpyridin-2-yl)methyl)-9H-purin-8-yl)phenoxy)-1-(3-fluoropiperidin-1-yl)ethan-1-one]", "values": [{"measurement": "IC50", "setting": "[1]", "result": 0.158, "unit": "µM"}]}, {"smiles": "Cc1ccnc(Cn2c(-c3ccc(OCC(=O)N4CCC(F)CC4)cc3Cl)nc3c(OC4(C)CC4)ncnc32)c1", "note": "[Example T553, 2-(3-chloro-4-(6-(1-methylcyclopropoxy)-9-((4-methylpyridin-2-yl)methyl)-9H-purin-8-yl)phenoxy)-1-(4-fluoropiperidin-1-yl)ethan-1-one]", "values": [{"measurement": "IC50", "setting": "[1]", "result": 0.2, "unit": "µM"}]}, {"smiles": "Cc1ccnc(Cn2c(-c3ccc(CC(=O)N4CC5(CCN5)C4)cc3Cl)nc3c(OC4(C)CC4)ncnc32)c1", "note": "[Example T556, 2-(3-chloro-4-(6-(1-methylcyclopropoxy)-9-((4-methylpyridin-2-yl)methyl)-9H-purin-8-yl)phenyl)-1-(1,6-diazaspiro[3.3]heptan-6-yl)ethan-1-one]", "values": [{"measurement": "IC50", "setting": "[1]", "result": 6.31, "unit": "µM"}]}, {"smiles": "Cc1ccnc(Cn2c(-c3ccc(CC(=O)N4C5CNCC4C5)cc3Cl)nc3c(OC4(C)CC4)ncnc32)c1", "note": "[Example T557, 1-(3,6-diazabicyclo[3.1.1]heptan-6-yl)-2-(3-chloro-4-(6-(1-methylcyclopropoxy)-9-((4-methylpyridin-2-yl)methyl)-9H-purin-8-yl)phenyl)ethan-1-one]", "values": [{"measurement": "IC50", "setting": "[1]", "result": 6.31, "unit": "µM"}]}, {"smiles": "Cc1ccnc(Cn2c(-c3ccc(CC(=O)N4CC5(CNC5)C4)cc3Cl)nc3c(OC4(C)CC4)ncnc32)c1", "note": "[Example T558, 2-(3-chloro-4-(6-(1-methylcyclopropoxy)-9-((4-methylpyridin-2-yl)methyl)-9H-purin-8-yl)phenyl)-1-(2,6-diazaspiro[3.3]heptan-2-yl)ethan-1-one]", "values": [{"measurement": "IC50", "setting": "[1]", "result": "> 10", "unit": "µM"}]}, {"smiles": "CC(C)(CCOc1ccc(-c2nc3c(OC4(C)CC4)ncnc3n2Cc2cccc(Cl)c2)c(Cl)c1)CC(=O)O", "note": "[Example T562, 5-(3-chloro-4-(9-(3-chlorobenzyl)-6-(1-methylcyclopropoxy)-9H-purin-8-yl)phenoxy)-3,3-dimethylpentanoic acid]", "values": [{"measurement": "IC50", "setting": "[1]", "result": 0.126, "unit": "µM"}]}, {"smiles": "CC1(Oc2ncnc3c2nc(-c2cccc(OCCCCCCC(=O)O)c2Cl)n3Cc2cccc(Cl)c2)CC1", "note": "[Example T564, 7-(2-chloro-3-(9-(3-chlorobenzyl)-6-(1-methylcyclopropoxy)-9H-purin-8-yl)phenoxy)heptanoic acid]", "values": [{"measurement": "IC50", "setting": "[1]", "result": 0.0316, "unit": "µM"}]}, {"smiles": "CC1(Oc2ncnc3c2nc(-c2cccc(OCCCC(C)(C)C(=O)O)c2Cl)n3Cc2cccc(Cl)c2)CC1", "note": "[Example T565, 5-(2-chloro-3-(9-(3-chlorobenzyl)-6-(1-methylcyclopropoxy)-9H-purin-8-yl)phenoxy)-2,2-dimethylpentanoic acid]", "values": [{"measurement": "IC50", "setting": "[1]", "result": 0.1, "unit": "µM"}]}, {"smiles": "CC1(Oc2ncnc3c2nc(-c2ccc(OCCN4CCNCC4C(F)F)cc2Cl)n3Cc2ccccc2)CC1", "note": "(stereo not drawn) [Example T567, 9-benzyl-8-(2-chloro-4-(2-(2-(difluoromethyl)piperazin-1-yl)ethoxy)phenyl)-6-(1-methylcyclopropoxy)-9H-purine]", "values": [{"measurement": "IC50", "setting": "[1]", "result": 0.158, "unit": "µM"}]}, {"smiles": "Cc1ccnc(Cn2c(-c3ccc(CC(=O)N4CC[C@](C)(O)C4)cc3Cl)nc3c(OC4(C)CC4)ncnc32)c1", "note": "[Example T575, (S)-2-(3-chloro-4-(6-(1-methylcyclopropoxy)-9-((4-methylpyridin-2-yl)methyl)-9H-purin-8-yl)phenyl)-1-(3-hydroxy-3-methylpyrrolidin-1-yl)ethan-1-one]", "values": [{"measurement": "IC50", "setting": "[2]", "result": 0.316, "unit": "µM"}]}, {"smiles": "Cc1ccnc(Cn2c(-c3ccc(OCC(=O)N4CCC[C@H]4CO)cc3Cl)nc3c(OC4(C)CC4)ncnc32)c1", "note": "[Example T576, (S)-2-(3-chloro-4-(6-(1-methylcyclopropoxy)-9-((4-methylpyridin-2-yl)methyl)-9H-purin-8-yl)phenoxy)-1-(2-(hydroxymethyl)pyrrolidin-1-yl)ethan-1-one]", "values": [{"measurement": "IC50", "setting": "[2]", "result": 0.501, "unit": "µM"}]}, {"smiles": "CO[C@H]1CCN(C(=O)COc2ccc(-c3nc4c(OC5(C)CC5)ncnc4n3Cc3cc(C)ccn3)c(Cl)c2)C1", "note": "[Example T577, (S)-2-(3-chloro-4-(6-(1-methylcyclopropoxy)-9-((4-methylpyridin-2-yl)methyl)-9H-purin-8-yl)phenoxy)-1-(3-methoxypyrrolidin-1-yl)ethan-1-one]", "values": [{"measurement": "IC50", "setting": "[2]", "result": 0.398, "unit": "µM"}]}, {"smiles": "Cc1ccnc(Cn2c(-c3ccc(OCC(=O)N4CC[C@@H](CO)C4)cc3Cl)nc3c(OC4(C)CC4)ncnc32)c1", "note": "[Example T578, (R)-2-(3-chloro-4-(6-(1-methylcyclopropoxy)-9-((4-methylpyridin-2-yl)methyl)-9H-purin-8-yl)phenoxy)-1-(3-(hydroxymethyl)pyrrolidin-1-yl)ethan-1-one]", "values": [{"measurement": "IC50", "setting": "[2]", "result": 0.631, "unit": "µM"}]}, {"smiles": "Cc1ccnc(Cn2c(-c3ccc(OCC(=O)N4CCC[C@@H]4CO)cc3Cl)nc3c(OC4(C)CC4)ncnc32)c1", "note": "[Example T579, (R)-2-(3-chloro-4-(6-(1-methylcyclopropoxy)-9-((4-methylpyridin-2-yl)methyl)-9H-purin-8-yl)phenoxy)-1-(2-(hydroxymethyl)pyrrolidin-1-yl)ethan-1-one]", "values": [{"measurement": "IC50", "setting": "[2]", "result": 0.501, "unit": "µM"}]}, {"smiles": "Cc1ccnc(Cn2c(-c3ccc(OCC(=O)N4CCC(O)CC4)cc3Cl)nc3c(OC4(C)CC4)ncnc32)c1", "note": "[Example T580, 2-(3-chloro-4-(6-(1-methylcyclopropoxy)-9-((4-methylpyridin-2-yl)methyl)-9H-purin-8-yl)phenoxy)-1-(4-hydroxypiperidin-1-yl)ethan-1-one]", "values": [{"measurement": "IC50", "setting": "[2]", "result": 0.501, "unit": "µM"}]}, {"smiles": "Cc1ccnc(Cn2c(-c3ccc(OCC(=O)N4CC[C@@](C)(O)C4)cc3Cl)nc3c(OC4(C)CC4)ncnc32)c1", "note": "[Example T581, (R)-2-(3-chloro-4-(6-(1-methylcyclopropoxy)-9-((4-methylpyridin-2-yl)methyl)-9H-purin-8-yl)phenoxy)-1-(3-hydroxy-3-methylpyrrolidin-1-yl)ethan-1-one]", "values": [{"measurement": "IC50", "setting": "[2]", "result": 0.501, "unit": "µM"}]}, {"smiles": "Cc1ccnc(Cn2c(-c3ccc(OCC(=O)N(C)[C@H]4C[C@@H](O)C4)cc3Cl)nc3c(OC4(C)CC4)ncnc32)c1", "note": "[Example T582, 2-(3-chloro-4-(6-(1-methylcyclopropoxy)-9-((4-methylpyridin-2-yl)methyl)-9H-purin-8-yl)phenoxy)-N-((1s,3s)-3-hydroxycyclobutyl)-N-methylacetamide]", "values": [{"measurement": "POLQ PD Prolif Lumin", "result": 6.2}]}, {"smiles": "Cc1ccnc(Cn2c(-c3ccc(OCC(=O)N(C)CC4(O)CC4)cc3Cl)nc3c(OC4(C)CC4)ncnc32)c1", "note": "[Example T583, 2-(3-chloro-4-(6-(1-methylcyclopropoxy)-9-((4-methylpyridin-2-yl)methyl)-9H-purin-8-yl)phenoxy)-N-((1-hydroxycyclopropyl)methyl)-N-methylacetamide]", "values": [{"measurement": "IC50", "setting": "[2]", "result": 2, "unit": "µM"}]}, {"smiles": "Cc1ccnc(Cn2c(-c3ccc(O[C@H]4CCN(C(=O)[C@@H](C)O)C4)cc3Cl)nc3c(OC4(C)CC4)ncnc32)c1", "note": "[Example T584, (R)-1-((S)-3-(3-chloro-4-(6-(1-methylcyclopropoxy)-9-((4-methylpyridin-2-yl)methyl)-9H-purin-8-yl)phenoxy)pyrrolidin-1-yl)-2-hydroxypropan-1-one]", "values": [{"measurement": "IC50", "setting": "[2]", "result": 0.794, "unit": "µM"}]}, {"smiles": "Cc1ccnc(Cn2c(-c3ccc(N4CCN5CCC[C@H]5C4)cc3Cl)nc3c(OC4(C)CC4)ncnc32)c1", "note": "[Example T585, (S)-8-(2-chloro-4-(hexahydropyrrolo[1,2-a]pyrazin-2(1H)-yl)phenyl)-6-(1-methylcyclopropoxy)-9-((4-methylpyridin-2-yl)methyl)-9H-purine]", "values": [{"measurement": "IC50", "setting": "[2]", "result": 0.2, "unit": "µM"}]}, {"smiles": "Cc1ccnc(Cn2c(-c3ccc(N4CCC5(CCN5)CC4)cc3Cl)nc3c(OC4(C)CC4)ncnc32)c1", "note": "[Example T586, 8-(2-chloro-4-(1,7-diazaspiro[3.5]nonan-7-yl)phenyl)-6-(1-methylcyclopropoxy)-9-((4-methylpyridin-2-yl)methyl)-9H-purine]", "values": [{"measurement": "IC50", "setting": "[2]", "result": 1.58, "unit": "µM"}]}]}
